Data published in US6872749B2, “Method for supplying bioavailable methionine to a cow” (Adisseo Ireland Limited, priority 1998, dated 2005).

Experiment: Bioavailability of esters of methionine after spot dose to cows (Example 2)
Assay type: in vivo, cow
Conditions: bovine, in vivo; for Bioavailability %: po
Procedure: The bioavailability of the esters was evaluated.
The samples were stored in a freezer.
The procedure of (b1) was repeated using 72 g of methionine ethyl ester hydrochloride, prepared as detailed above
• cyclohexyl methioninate: 122 g • methionine methyl ester hydrochloride: 73 g • sec butyl methioninate: 72 g

[met] methionine concentration in blood plasma (0 h)	[met] methionine concentration in blood plasma (1 h)	[met] methionine concentration in blood plasma (2 h)	[met] methionine concentration in blood plasma (3 h)	[met] methionine concentration in blood plasma (5 h)	[met] methionine concentration in blood plasma (7 h)	[met] methionine concentration in blood plasma (28 h)	Bioavailability % [%]	methionine equivalent provided to the cow by rumen absorption	time after intake within which methionine is provided to the blood stream	Compound
0.34 mg/100 g of blood plasma	4.08 mg/100 g of blood plasma	3.87 mg/100 g of blood plasma	3.25 mg/100 g of blood plasma	2.57 mg/100 g of blood plasma	2.51 mg/100 g of blood plasma	0.41 mg/100 g of blood plasma	51	–	–	COC(=O)[C@@H](N)CCSC [Methyl methioninate, methyl methioninate]
0.41 mg/100 g of blood plasma	1.96 mg/100 g of blood plasma	1.43 mg/100 g of blood plasma	1.27 mg/100 g of blood plasma	1.18 mg/100 g of blood plasma	1.22 mg/100 g of blood plasma	0.43 mg/100 g of blood plasma	25	–	–	COC(=O)[C@@H](N)CCSC.Cl [Methionine methyl ester hydrochloride, methionine methyl ester hydrochloride]
0.37 mg/100 g of blood plasma	4.84 mg/100 g of blood plasma	4.87 mg/100 g of blood plasma	4.98 mg/100 g of blood plasma	4.39 mg/100 g of blood plasma	4.19 mg/100 g of blood plasma	0.76 mg/100 g of blood plasma	80	approximately 80%	less than one	CSCC[C@H](N)C(=O)OC(C)(C)C [Tertiary butyl methioninate, tertiary butyl methioninate]
0.36 mg/100 g of blood plasma	2.78 mg/100 g of blood plasma	2.60 mg/100 g of blood plasma	2.30 mg/100 g of blood plasma	2.00 mg/100 g of blood plasma	1.43 mg/100 g of blood plasma	0.38 mg/100 g of blood plasma	30	–	–	CCOC(=O)[C@@H](N)CCSC.Cl [Methionine ethyl ester hydrochloride, methionine ethyl ester hydrochloride]
0.35 mg/100 g of blood plasma	2.75 mg/100 g of blood plasma	2.49 mg/100 g of blood plasma	2.39 mg/100 g of blood plasma	1.75 mg/100 g of blood plasma	1.56 mg/100 g of blood plasma	0.44 mg/100 g of blood plasma	28	–	–	CCC(C)OC(=O)[C@@H](N)CCSC (some centres unmarked) [sec butyl methioninate]
0.33 mg/100 g of blood plasma	0.38 mg/100 g of blood plasma	0.37 mg/100 g of blood plasma	0.37 mg/100 g of blood plasma	0.44 mg/100 g of blood plasma	0.45 mg/100 g of blood plasma	0.28 mg/100 g of blood plasma	3	–	–	CCCCCCCCCCCCOC(=O)[C@@H](N)CCSC [Dodecyl methioninate, dodecyl methioninate]
